From the RepoRT retention time repository (doi:10.1038/s41596-020-0341-5)

experiment: RP, Waters ACQUITY UPLC BEH C8, 100 × 2.1 mm, 1.7 µm, 50 °C, 0.35 mL/min, estimated dead time 0.63 min; A: water + 0.1% formic acid; B: acetonitrile + 0.1% formic acid; gradient (min/%B) 0/5 1/5 24/100 28/100; details: stereoisomer not certain

LC retention time [min]	Structure (SMILES)
4.47	O=C(O)c1ccccc1O
3.67	NC(=O)CCC(NC(=O)Cc1ccccc1)C(=O)O (stereo not drawn)
2.47	NC(Cc1c[nH]c2ccccc12)C(=O)O (stereo not drawn)
13.2	CCCCCCCCC=CCC=CCCC(=O)OC(CC(=O)O)C[N+](C)(C)C (stereo not drawn)
14.4	CCCCCCC=CCCCCCCCCCCOCC(O)COP(=O)([O-])OCC[N+](C)(C)C (stereo not drawn)
13.8	CCCCCCCCCCCCCCC(=O)OC(CC(=O)O)C[N+](C)(C)C (stereo not drawn)
19.1	CCCCCCCCCCCCCCC=CCCCCCCCCCC(=O)OC(CC(=O)O)C[N+](C)(C)C (stereo not drawn)
17.1	CCCCCCCCCCCCCCCCCCCC(=O)OC(CC(=O)O)C[N+](C)(C)C (stereo not drawn)
21.8	CC(C)CCCC(C)C1CCC2C3CCC4=CC(=O)CCC4(C)C3CCC12C (stereo not drawn)
1.02	CSCCC(N)C(=O)O (stereo not drawn)
17	CCCCCC=CCC=CCCCCCCCC(=O)OCC(O)CO (stereo not drawn)
1.6	O=C(CO)CO
17.8	CCC=CCC=CCC=CCC=CCC=CCC=CCCC(=O)O
7.77	CC12CCC(=O)C=C1CCC1C2C(O)CC2(C)C1CCC2(O)C(=O)CO (stereo not drawn)
19.8	CCCCCCCCCCCCCCCCCCCCCCCCCC(=O)OC(CC(=O)O)C[N+](C)(C)C (stereo not drawn)
13.3	CC(CCC(=O)O)C1CCC2C3CCC4CC(O)CCC4(C)C3CC(O)C12C (stereo not drawn)
3.85	Cc1cc2nc3c(=O)[nH]c(=O)nc-3n(CC(O)C(O)C(O)CO)c2cc1C (stereo not drawn)
20.1	CCCCCCCCC=CCCCCCCCCCC(=O)O
1.03	NC(Cc1ccc(O)cc1)C(=O)O (stereo not drawn)
13.3	CCCCCCCCCCCCCC(=O)OC(CC(=O)O)C[N+](C)(C)C (stereo not drawn)
10.7	C=CC1=C(C)C(C=c2[nH]c(=Cc3[nH]c(C=C4NC(=O)C(C)=C4C=C)c(C)c3CCC(=O)O)c(CCC(=O)O)c2C)=NC1=O
1.98	CC(=O)Nc1ccc(O)cc1
7.33	O=C(O)CCc1c[nH]c2ccccc12
18.1	CCC=CCC=CCC=CCC=CCC=CCCCC(=O)O

LC retention time [min]	Structure (SMILES)
1.53	Nc1ccccc1C(=O)CC(N)C(=O)O (stereo not drawn)
17.1	CCC=CCC=CCC=CCCCCCCCC(=O)O
2.03	CC(C)NCC(O)COc1ccc(CC(N)=O)cc1 (stereo not drawn)
18.8	CCCCCCCCC=CCCCCCCCCCCCC(N)=O
1.03	O=Cc1ccc(O)cc1
1.12	CC(C)CC(NC(=O)C1CCCN1)C(=O)O (stereo not drawn)
17.9	CCCCCC=CCC=CCC=CCC=CCCCC(=O)O
17.9	CC(=O)CCC=C(C)CCC=C(C)CCC=C(C)C
18.4	CCCCCC=CCC=CCC=CCCCCCCC(=O)O
14.3	CCCCCCCCCCCCCCCC(=O)OCC(O)COP(=O)([O-])OCC[N+](C)(C)C (stereo not drawn)
12.7	CCCCC=CCCCCCCCC(=O)OC(CC(=O)O)C[N+](C)(C)C (stereo not drawn)
8.58	CCC=CCC=CCCC(=O)OC(CC(=O)O)C[N+](C)(C)C (stereo not drawn)
18.1	CCCCCCCCCCCCCCCCCCCCCC(=O)OC(CC(=O)O)C[N+](C)(C)C (stereo not drawn)
3.23	Oc1ccc2[nH]ccc2c1
16.3	CCCCCCCCC=CCCCCCCCCCC(=O)OC(CC(=O)O)C[N+](C)(C)C (stereo not drawn)
16.3	CCCCCCCCCCCCCCCC(=O)NCCO
17.4	CCCCCCCCC=CCCCCCCCC(N)=O
0.9	O=C(O)C1CCCN1 (stereo not drawn)
4.18	NC(Cc1ccccc1)C(=O)N1CCCC1C(=O)O (stereo not drawn)
9.97	CC(CCC(=O)NCC(=O)O)C1CCC2C3C(O)C(O)C4CC(O)CCC4(C)C3CCC12C (stereo not drawn)
8.62	CCCCCCCCC(=O)OC(CC(=O)O)C[N+](C)(C)C (stereo not drawn)
1.03	C1CCNC1
3.7	CCCCC(=O)OC(CC(=O)O)C[N+](C)(C)C (stereo not drawn)
11.4	CCCCCCC=CCCCC(=O)OC(CC(=O)O)C[N+](C)(C)C (stereo not drawn)

LC retention time [min]	Structure (SMILES)
17.1	CC(C)C1=CC2=CCC3C(C)(C(=O)O)CCCC3(C)C2CC1 (stereo not drawn)
14.4	CCCCCC=CC=CCCCCCCCCC(=O)OC(CC(=O)O)C[N+](C)(C)C (stereo not drawn)
22	CCC=CCC=CCC=CCC=CCC=CCCCC(=O)OCC(COP(=O)([O-])OCC[N+](C)(C)C)OC(=O)CCCC=CCC=CCC=CCCCCCCCC (stereo not drawn)
16.8	CCCCCCCCCCCCCCCCCCC(=O)OCC(O)COP(=O)([O-])OCC[N+](C)(C)C (stereo not drawn)
3.05	CC(C)CC(NC(=O)CCC([NH3+])C(=O)[O-])C(=O)[O-] (stereo not drawn)
1.92	CC(C)(CO)C(O)C(=O)NCCC(=O)O (stereo not drawn)
19	CCCCCCCCCCCCCCCCCCCCCCCC(=O)OC(CC(=O)O)C[N+](C)(C)C (stereo not drawn)
11.8	CCCCC=CCCCCCCC(=O)OC(CC(=O)O)C[N+](C)(C)C (stereo not drawn)
1.6	NN1CCOC1=O
18.4	CCCCCCCCCCCCCCCCCC(N)=O
1.02	O=c1[nH]cnc2nc[nH]c12
7.7	CCn1cc(C(=O)O)c(=O)c2ccc(C)nc21
6.8	CCCC=CCCC(=O)OC(CC(=O)O)C[N+](C)(C)C (stereo not drawn)
1.63	NC(Cc1ccccc1)C(=O)O (stereo not drawn)
0.767	C[N+](C)(C)CC(O)CC(=O)[O-] (stereo not drawn)
13	CCCCCCCCCCCCCC=CC(O)C(N)COP(=O)(O)O (stereo not drawn)
7.65	CCCCC=CCCC(=O)OC(CC(=O)O)C[N+](C)(C)C (stereo not drawn)
18.9	CCCCCCC=CCCCCCCCCCC(=O)O
13.9	CCCCCCCCC=CCCCCCC(=O)OC(CC(=O)O)C[N+](C)(C)C (stereo not drawn)
16.9	CCCCCCCCCCCCCCCC(N)=O
13.9	O=C(O)C(O)c1ccc(O)c(O)c1 (stereo not drawn)
2.28	CCCC(=O)OC(CC(=O)O)C[N+](C)(C)C (stereo not drawn)
19.4	CC(C)CCCC(C)C1CCC2C3C(=O)C=C4CC(O)CCC4(C)C3CCC12C (stereo not drawn)
11.8	CC(CCC(=O)NCC(=O)O)C1CCC2C3CCC4CC(O)CCC4(C)C3CC(O)C12C (stereo not drawn)

LC retention time [min]	Structure (SMILES)
0.817	O=C(O)C1CCCCN1 (stereo not drawn)
1.6	O=C(O)C=Cc1ccccc1
0.783	O=CCC(O)C(O)C(O)CO (stereo not drawn)
17.4	CCCCCCC=CCCCCCCCC(=O)O
5.28	Nc1nc2ccc(C(=O)c3ccccc3)cc2[nH]1
5.35	NC(Cc1ccccc1)C(=O)NC(Cc1ccccc1)C(=O)O (stereo not drawn)
5.17	O=C(O)C(O)Cc1c[nH]c2ccccc12 (stereo not drawn)
9.35	CCCCCC=CCCC(=O)OC(CC(=O)O)C[N+](C)(C)C (stereo not drawn)
18.4	CCCCCCCCCCCCCCCC(=O)O
11.9	CCCCC=CC=CCCCCCC(=O)OC(CC(=O)O)C[N+](C)(C)C (stereo not drawn)
15.2	CCCCCCC=CCCCCCCCCCC(=O)OC(CC(=O)O)C[N+](C)(C)C (stereo not drawn)
15.9	CCCCCC=CCC=CCC=CCCCCCCC(=O)OCC(O)COP(=O)([O-])OCC[N+](C)(C)C (stereo not drawn)
20.2	CCCCCC=CCC=CCC=CCCCCCCC(=O)OCC(COP(=O)([O-])OCC[N+](C)(C)C)OC(=O)CCCCCCCCCCCCC (stereo not drawn)
2.47	Cc1cnc2ccccc2c1
2.28	Cn1c(=O)[nH]c2ncn(C)c2c1=O
15.3	CCCCCCCCCCCCCCCCCCOCC(O)COP(=O)([O-])OCC[N+](C)(C)C (stereo not drawn)
12.6	CCCCCCCCCCCCCCCC(O)C(N)CO (stereo not drawn)
1	Cn1cnc2c(ncn2C2OC(CO)C(O)C2O)c1=N (stereo not drawn)
0.8	CCCCCCC(N)C(=O)O (stereo not drawn)
1.22	CC(=O)Nc1ccc(OC2OC(C(=O)O)C(O)C(O)C2O)cc1 (stereo not drawn)
16.9	CCCCCCCCC=CCCCCCCCC(=O)NCCO

Structure (SMILES)	LC retention time [min]
CCCCCCCCOC(=O)c1ccccc1C(=O)OCCCCCCCC	21.4
CC(C)CCCCCOC(=O)c1ccccc1C(=O)OCCCCCC(C)C	20.8
NCCc1c[nH]c2ccc(O)cc12	1.02
CCCCOC(=O)c1ccccc1C(=O)OCCCC	15.7
Cn1cccc1-c1cccnc1	2.47
